Columns and labels:
in vivo = details: chimpanzee, po; for concentration detected intact in urine: 24 h; for concentration at 24 h: concentration detected intact in urine
Protocol: (§1) Four chimps (two male and two female) were used in this study and were fasted overnight prior to administration of the compound solution. Animals were sedated with ketamine and/or telazol prior to dosing. Intravenous dosing was achieved by IV infusion over 30 minutes.
(§2) Approximately 4.5 mL of blood was collected into vacutainer tubes with sodium heparin as an anticoagulant at 0 (preinfusion), 15 min., 29.5 min (immediately before the end of the infusion), and then at 6, 15, 30, and 45 minutes, and 1, 2, 4, 6, 8, 10, 12, 24 hours after the infusion is stopped. A similar procedure was used to collect blood after oral dosing with samples taken at 0 (predose), 15, and 30 minutes, and at 1, 1.5, 2, 4, 6, 8, 10, 12, 24 hours postdose. Following sample collection, the vacutainer tubes were rocked by hand several times to insure adequate mixing. Blood samples were placed immediately on wet ice and centrifuged within 1 hour from time of collection. Following centrifugation, the resulting plasma was stored frozen at −70° C. until analysis. The results are summarized in FIGS. 4 and 5 and tables 6 and 7.
Run B: Same as Run A, except the dose was 150 mg orally of each of atazanavir and compounds 114 and 120, and the vehicle was 10 percent ethanol, 40 percent polypropylglycol in 2.5 percent citric acid.

[1] = Chimp pharmacokinetics Run A, IV or PO co-dosing of atazanavir and Compounds 114, 120, 122; assay type: in vivo, chimpanzee; details: for concentration at 24 h: concentration detected intact in urine
Protocol: Chimp Pharmacokineties. Run A: A 4 mg/mL solution of atazanavir and each of Compounds 114, 120 and 122 were prepared in 10% DMI (dimethyl isosorbide), 15% EtOH, 35% PG in D5W. Specifically, for each compound, 240 mgs of compound was dissolved in a solution composed of 6 mL of DMI, 9 mL of EtOH and 21 mL PG. Once the compound was fully dissolved, 24 mL of D5W was added and the solution mixed.
Fifty-five mL of each drug solution is then combined and the mixture was sterile filtered using a 0.2 μm filter. This produced 220 mL of a 1:1:1:1 mixture atazanavir:Compound 114:Compound 120:Compound 122. The final concentration of each drug in the solution was 1 mg/mL. Each animal received 50 mL of this solution through either IV or PO routes.
as §1, §2

[2] = Microsomal assay: stability in human liver microsomes; assay type: in vitro ADME; details: human, liver microsomes, pH 7.4, human liver microsomes, repeated assay (Table 3); read-out: t1/2 (min) Avg ± SD (n = 3)
Protocol: Microsomal Assay. Human liver microsomes (20 mg/mL, pool of 50 individuals) were obtained from Xenotech LLC (Lenexa, Kans.). The incubation mixtures are prepared as follows. Stock solutions (10 mM) solutions of test Compounds 103, 106, 122 and of atazanavir were prepared in DMSO. The 10 mM stock solutions were diluted to 1 mM in acetonitrile (ACN). […] The microsome-test compound mixtures were added to wells of a 2 mL 96-well deep well polypropylene plate in triplicate. The plate was warmed to 37° C. before initiating the reactions by addition of prewarmed NADPH in 0.1 M potassium phosphate buffer, pH 7.4, containing 3 mM MgCl2. The final reaction mixture composition contained: • Liver Microsomes 0.5 mg/mL • NADPH 2 mM • Potassium Phosphate, pH 7.4 100 mM • Magnesium Chloride 3 mM • Test Compound 1.0 μM. The reaction mixtures were incubated at 37° C. and 50 μL aliquots were removed at 0, 3, 7, 12, 20, and 30 minutes and added to shallow-well 96-well plates which contained 50 μL of ice-cold ACN with internal standard to stop the reactions. The plates were stored at −20° C. for 30 minutes, after which 100 μL of water was added to the wells of the plate before centrifugation to pellet precipitated proteins. Supernatants were transferred to another 96-well plate and analyzed for amounts of parent remaining by LC-MS/MS using an Applied Biosystems API 4000 mass spectrometer. […] Data analysis was performed using Microsoft Excel Software. […] The results are shown in FIGS. 2 and 3 and in Table 3, below: […]

HIV-1RF = test: HIV anti-viral activity in CEM-SS cells infected with HIV-1 (XTT); assay type: cell-based; details: for EC50: Human immunodeficiency virus 1, CEM-SS
Protocol: The HIV antiviral activity of compound of the present invention was tested in CEM-SS cells infected with HIV-1. CEM-SS cells were passaged in T-75 flasks in RPMI 1640 medium supplemented with 10% heat inactivated fetal bovine serum, 2 mmol/L L-glutamine, 100 U/mL penicillin and 100 flg/mL streptomycin prior to use in the antiviral assay. On the day preceding the assay, the cells were split 1:2 to assure they were in an exponential growth phase at the time of infection. Total cell and viability quantification was performed using a hemocytometer and Trypan Blue dye exclusion. Cell viability was greater than 95% for the cells to be utilized in the assay. The cells were resuspended at 5×10^4 cells per mL in tissue culture medium and added to the drug-containing microtiter plates in a volume of 50 μL.
The virus used for the assay was the lymphocyte-tropic virus strain HIV-IRF. The virus was obtained from the NIH AIDS Research and Reference Reagent Program and stock virus pools were produced in CEM-SS cells. A pre-titered aliquot of virus was removed from the freezer (−80° C.) and allowed to thaw slowly to room temperature in a biological safety cabinet. Virus was resuspended and diluted into tissue culture medium such that the amount of virus added to each well in a volume of 50 μL was the amount determined to yield 85 to 95% cell killing at 6 days post-infection.
Each plate contains cell control wells (cells only), virus control wells (cells plus virus), compound toxicity wells (cells plus compound only), compound colorimetric control wells (compound only) as well as experimental wells (compound plus cells plus virus). Samples were tested in triplicate with eleven half-log dilutions per compound starting at 0.1 μM of compound. Compounds 104, 120 and 122 were tested, as was atazanavir and AZT. […]
Following incubation at 37° C. in a 5% CO2 incubator, the test plates were stained with the tetrazolium dye XTT (2,3-bis(2-methoxy-4-nitro-5sulfophenyl)-5-[(phenylamino)carbonyl]-2H-tetrazolium hydroxide). XTT-tetrazolium was metabolized by the mitochondrial enzymes of metabolically active cells to a soluble formazan product, allowing rapid quantitative analysis of the inhibition of HIV induced cell killing by anti-HIV test substances. XTT solution was prepared daily as a stock of 1 mg/mL in RPMI 1640. Phenazine methosulfate (PMS) solution was prepared at 0.15 mg/mL in PBS and stored in the dark at −20° C. XTT/PMS stock was prepared immediately before use by adding 40 μL of PMS per mL of XTT solution. Fifty microliters of XTT/PMS was added to each well of the plate and the plate was reincubated for 4 hours at 37° C. Plates were sealed with adhesive plate sealers and shaken gently or inverted several times to mix the soluble formazan product and the plate was read spectrophotometrically at 450/650 nm with a Molecular Devices Vmax plate reader.
Raw data was collected from the Softmax Pro 4.6 software and imported into a Microsoft Excel 2003 spreadsheet for analysis by linear curve fit calculations.

[3] = chimp A242E, PO, 24 hours, Run A
[4] = chimp A336C, IV, 24 hours, Run A

SMILES	concentration detected intact in urine (in vivo)	concentration at 24 h (in vivo)	Ratio of urine concentration, compound:Atazanavir [1, 3]	Ratio of urine concentration, compound:Atazanavir [1, 4]	Ratio of urine concentration, compound:Atazanavir ([1]; chimpanzee, in vivo, iv, 24 h)	concentration detected intact in urine ([1]; chimpanzee, in vivo, iv, 24 h)	concentration at 24 h ([1]; chimpanzee, in vivo, iv)	Ratio of urine concentration, compound:Atazanavir ([1]; chimpanzee, in vivo, po, 24 h)	concentration detected intact in urine ([1]; chimpanzee, in vivo, po, 24 h)	concentration at 24 h ([1]; chimpanzee, in vivo, po)	half-life at 1 μM [2]	fold less potent in the presence of HSA than in cell culture medium alone (HIV-1RF; 10 mg/mL HSA versus cell culture medium)	EC50 (HIV-1RF; +0.5 mg/mL AAGP)	EC50 (HIV-1RF; +10 mg/mL HAS)	EC50 (HIV-1RF; +AAGP + HSA)	EC50 (HIV-1RF; No Serum Protein Added (cell culture medium))
[2H]C([2H])([2H])OC(=O)N[C@H](C(=O)N[C@@H](Cc1ccccc1)[C@@H](O)CN(Cc1ccc(-c2ccccn2)cc1)NC(=O)[C@@H](NC(=O)OC)C(C)(C)C)C(C([2H])([2H])[2H])(C([2H])([2H])[2H])C([2H])([2H])[2H] [Compound 114, 1-Methyl-14-(methyl-d3)(3S,8S,9S,12S)-3-(1,1-dimethylethyl)-12-[(1,1-dimethylethyl)-d9]-8-hydroxy-4,11-dioxo-9-(phenylmethyl)-6-[[4-(2-pyridinyl)phenyl]methyl]-2,5,6,10,13-pentaazatetradecanedioate]	4580 ng/mL	2530 ng/mL	1.8	1.5	1.3	2820 ng/mL	2750 ng/mL	1.8	963 ng/mL	1070 ng/mL	31.5 ± 0.8 min	–	–	–	–	–
[2H]C([2H])([2H])OC(=O)N[C@H](C(=O)NN(Cc1ccc(-c2ccccn2)cc1)C[C@H](O)[C@H](Cc1ccccc1)NC(=O)[C@@H](NC(=O)OC([2H])([2H])[2H])C(C([2H])([2H])[2H])(C([2H])([2H])[2H])C([2H])([2H])[2H])C(C)(C)C [Compound 120, 1,14-Di(methyl-d3)(3S,8S,9S,125)-3-(1,1-dimethylethyl)-12-[(1,1-dimethylethyl)-d9]-8-hydroxy-4,11-dioxo-9-(phenlymethyl)-6-[[4-(2-pyridinyl)phenyl]methyl]-2,5,6,10,13-pentaazatetradecanedioate]	5030 ng/mL	2930 ng/mL	2.16	1.74	1.52	3110 ng/mL	3030 ng/mL	2.15	1110 ng/mL	1230 ng/mL	26.9 ± 1.4 min	two- to greater than three-fold less potent	3 nM	1 nM	4 nM	0.5 nM

Source: patent US8258309B2, “Azapeptide derivatives” (priority 2007, dated 2012)
